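How tested: cells in 96-well plates exposed to compound for 48 hours at five concentrations. Here, GI50 denotes the concentration required for 50% inhibition of growth.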 Activity calls are given as the source filed them. No stated cut-off is given here; in the data, active = GI50 up to about 1.1 µM and inactive = higher.
Experiments:
Assay in all cases: NCI tumour cell line growth inhibition, 48 h
SNB-19 = system: SNB-19
RXF 393 = system: RXF 393
LOX IMVI = system: LOX IMVI
SF-268 = system: SF-268
TK-10 = system: TK-10
SK-OV-3 = system: SK-OV-3
A549 = system: A549
BT-549 = system: BT-549
SF-295 = system: SF-295
Malme-3M = system: Malme-3M
SK-MEL-5 = system: SK-MEL-5
OVCAR-8 = system: OVCAR-8
RPMI-8226 = system: RPMI-8226
EKVX = system: EKVX
M14 = system: M14
UACC-62 = system: UACC-62
MOLT-4 = system: MOLT-4
SK-MEL-2 = system: SK-MEL-2
MCF7 = system: MCF7
Hs-578T = system: Hs-578T

Measured: GI50

OCCc1ccsc1-c1sc(-c2cc(CCO)c(-c3sccc3CCO)s2)cc1CCO
inactive: SNB-19 13.6 µM | RXF 393 2.77 µM | LOX IMVI 5.45 µM | SF-268 5.42 µM | TK-10 19.5 µM | SK-OV-3 17.5 µM | A549 29 µM | BT-549 6.11 µM | SF-295 15.1 µM | Malme-3M 11.1 µM | SK-MEL-5 15.6 µM | OVCAR-8 15.7 µM | RPMI-8226 5.05 µM | EKVX 17.1 µM | M14 11.3 µM | UACC-62 11.6 µM | MOLT-4 7.89 µM | SK-MEL-2 14.7 µM | MCF7 15.7 µM

O=S(=O)(O)c1ccc2c(/N=N\c3ccc(F)cc3)c(O)c(S(=O)(=O)O)cc2c1
inactive: SNB-19 > 100 µM | RXF 393 > 100 µM | LOX IMVI > 100 µM | SF-268 > 100 µM | TK-10 > 100 µM | SK-OV-3 > 100 µM | A549 > 100 µM | BT-549 > 100 µM | Hs-578T > 100 µM | SF-295 > 100 µM | Malme-3M > 100 µM | SK-MEL-5 > 100 µM | OVCAR-8 > 100 µM | RPMI-8226 > 100 µM | EKVX > 100 µM | M14 > 100 µM | UACC-62 > 100 µM | MOLT-4 > 100 µM | SK-MEL-2 > 100 µM

CC(=O)C1=CN=C2C(=O)N(c3ccccc3)N(C)C12C (stereo unspecified)
inactive: SNB-19 > 100 µM | RXF 393 > 100 µM | LOX IMVI > 100 µM | TK-10 49.9 µM | SK-OV-3 > 100 µM | A549 > 100 µM | BT-549 > 100 µM | SF-295 > 100 µM | Malme-3M > 100 µM | SK-MEL-5 > 100 µM | OVCAR-8 > 100 µM | RPMI-8226 > 100 µM | EKVX > 100 µM | M14 > 100 µM | UACC-62 > 100 µM | MOLT-4 > 100 µM | SK-MEL-2 > 100 µM | MCF7 > 100 µM

Cc1cc(C)nc(NC(=S)Nc2cccc(Cl)c2)c1
inactive: SNB-19 > 100 µM | RXF 393 > 100 µM | LOX IMVI > 100 µM | SF-268 > 100 µM | TK-10 > 35.9 µM | SK-OV-3 > 100 µM | A549 20.8 µM | BT-549 > 100 µM | Hs-578T > 100 µM | SF-295 > 100 µM | Malme-3M > 100 µM | SK-MEL-5 > 10 µM | OVCAR-8 > 100 µM | RPMI-8226 > 100 µM | EKVX > 100 µM | M14 > 100 µM | UACC-62 > 100 µM | MOLT-4 > 100 µM | SK-MEL-2 > 100 µM

O=C1C(=Cc2ccc(O)cc2)N=C(c2ccccc2)N1n1c(-c2ccccc2)nc2ccccc2c1=O
inactive: SNB-19 > 100 µM | LOX IMVI > 100 µM | SF-268 > 100 µM | TK-10 > 100 µM | SK-OV-3 > 100 µM | A549 > 100 µM | BT-549 > 100 µM | Hs-578T 81.5 µM | SF-295 > 100 µM | Malme-3M > 100 µM | SK-MEL-5 > 100 µM | OVCAR-8 > 100 µM | RPMI-8226 46.1 µM | EKVX > 100 µM | M14 > 100 µM | UACC-62 97.1 µM | MOLT-4 78.7 µM | MCF7 30.9 µM

Cc1nn(C(=O)Cc2ccccc2)c2c1C(c1ccc(O)cc1)SC(=N)N2 (stereo unspecified)
inactive: SNB-19 > 100 µM | LOX IMVI > 100 µM | SF-268 > 100 µM | TK-10 > 100 µM | SK-OV-3 > 100 µM | A549 > 100 µM | BT-549 > 100 µM | Hs-578T > 100 µM | SF-295 > 100 µM | Malme-3M > 100 µM | SK-MEL-5 > 100 µM | OVCAR-8 > 100 µM | RPMI-8226 > 100 µM | EKVX > 100 µM | M14 > 100 µM | UACC-62 > 100 µM | MOLT-4 > 100 µM | MCF7 > 100 µM

Source: ChEMBL document CHEMBL1201862, “PubChem BioAssay data set” (2004)
